According to patent US7960549B2, “Solid forms of a chemokine receptor antagonist and methods of use thereof” (priority 2004, dated 2011):
Where a name gives a salt, the structure may show the parent alone.

Assays:
Assay type in all cases: physicochemical
[1] = Controlled temperature (isothermal) X-ray powder diffraction: thermal stability of the crystalline form; conditions: isothermal scans at intervals of 10° C.
Procedure: X-ray powder diffraction (XRPD) is performed on various samples of the Citrate Salt using one of three instruments. XRPD measurements with Instrument 1 utilize a Siemens-Bruker D5000 Matic powder diffractometer with a Bragg-Brentano (vertical θ-2θ configuration) parafocusing geometry. X-rays are produced from a sealed cobalt anode running at 40 kV and 30 mA. Two lines are typically emitted: CoKα1 (λ=1.7890 Å) and CoKα2 (λ=1.7929 Å). An iron β-filter limits the CoKβ (λ=1.6208 Å) radiation to about 1% of the diffracted beam at the detector. The primary beam passes through a parallel plate collimator (0.2 mm Soller slits), then through a divergence slit (0.2 mm). Diffracted X-rays are detected with a Braun 50 M multichannel linear detector having a 10°-wide detection window in angle 2θ. Scans are performed from 1.5° to 50.0° in 2θ, the scan time being 10 to 40 seconds per degree in 2θ. The error in the 2θ locations are typically within ±0.10 degrees.
In Instrument 3, XRPD measurements are performed at different temperatures to elucidate the evolution of crystal structure with temperature. Tests are carried out with a Siemens-Bruker D5000 diffractometer equipped with the Bragg Brentano parafocusing (θ-θ) geometry and an Anton-Paar TTK temperature chamber. Measurements utilize dry nitrogen or nitrogen streams having a particular humidity. The instrument specifications are substantially similar to the Siemens-Bruker D5000 Matic instrument described above (Instrument 1). Temperature is allowed to rise at a rate of 0.05° C./sec. Scans are recorded under the following conditions: a 1.5 to 50.0 degree scan in angle 2θ, 10 to 20 seconds counting time per degree in 2θ. Data are acquired in isotherm mode when the requested temperature is reached.

[2] = Thermal gravimetric analysis (TGA)
Procedure: Measurements utilizing thermal gravimetric analysis (TGA) are carried out on a T.A. instruments TGAQ500 analyzer. Mass calibration is performed with 10 and 100 mg certified masses. Temperature calibration is performed with Alumel® and nickel standards (Curie points of respectively 154° C. and 354° C.). Samples are exposed to a constant nitrogen stream of 60 ml/min, and temperature ranges from room temperature to 350° C. at a 5° C./min rate. The quantity of product tested is between 2 and 13 mg. The sample is deposited in an open aluminum sample pan, which is itself placed in a platinum pan. The temperatures identified from TGA scans of a particular sample are accurate to within ±3° C. Simultaneous TGA and DSC measurements are carried out using a […] thermal analysis system produced by the […] corporation. A liquid nitrogen cooling system makes it possible to work at temperatures below 20° C. The emitted gases, upon sample heating, are carried by a transfer capillary tube to a Pfeiffer mass spectrometer, the capillary tube heated to 150° C. The mass spectrometer can analyze molecular fragments at <<m/e>> ratios between 1 and 200 uma. A sample with a mass between 1 and 27 mg is contained in an open concave aluminum sample pan (75 μL capacity) exposed to a nitrogen stream. The sample is heated at a rate of 1 or 5° C./min.

[3] = Differential scanning calorimetry (DSC)
Procedure: Differential scanning calorimetry (DSC) analyses are performed using a T.A Instruments Q1000 thermal analyser. Analyses are carried out using nitrogen purge gas flowing at an average rate of 50 ml/min. A mechanical compressor cools the system, and equilibrates the instruments being used at ambient temperature between analyses. […] Energy calibration is performed with a certified indium calibrator (melting enthalpy of 28.45 J/g), applying a heating rate of 5° C./min. The temperatures identified from DSC scans of a particular sample are accurate to within ±3° C. […] Modulated temperature differential scanning calorimetry (MTDSC) is also used since deconvolution of the total heat flow into reversing and non-reversing heat flows allows the transitions to be easily identified. The samples were submitted to the same experimental temperature program: after the equilibration of the sample at −5° C., the samples were heated through a modulated program from −5° C. to 210° C. at a rate of 1° C./min. […] Experiments are performed using crimped aluminium sample pans or open pans in some cases. The quantity of product analysed is typically between 2 and 13 mg.

[4] = Water sorption/desorption cycling (dynamic vapor sorption, DVS) at 25° C., with XRPD before and after; conditions: 25° C.
Procedure: Water sorption measurements are performed on a DVS-1 automated gravimetric vapor sorption analyser (Surface Measurement Systems Ltd., London, UK). The DVS-1 measures the uptake and loss of vapor gravimetrically using a Cahn D200 recording ultra-microbalance with a mass resolution of ±0.1 μg. The relative humidity around the sample is controlled by mixing saturated and dry carrier gas streams using mass flow controllers. The temperature is maintained within ±0.1° C. by enclosing the entire system in a temperature-controlled incubator. A sample size between 15 and 20 mg is used. In general, the error in % (w/w) identified in a tested sample is ±0.1% (w/w).
Two protocols are utilized to operate the DVS. In one protocol, a sample is dried at 0% relative humidity (RH) to remove any surface water present and establish a dry, baseline mass. Next, the sample is exposed to the following relative humidity profile: 0%, 10%, 20%, 30%, 40%, 50%, 60%, 70%, 80%, 90%, 80%, 70%, 60%, 50%, 40%, 30%, 20%, 10%, 0%. In some instances, this profile is repeated, yielding 4 sets of data going up and down in RH. In another protocol, the sample is first equilibrated at 40% RH, then it was exposed to the following relative humidity profile: 40%, 50%, 60%, 70%, 80%, 90%, 100%, 90%, 80%, 70%, 60%, 50% 40% 30%, 20% 10%, 0%, 10%, 20%, 30%, 40%. […] If equilibrium state is not reached, the change in relative humidity took place automatically after 360 or 600 minutes. From the complete moisture sorption and desorption profile, an isotherm is calculated using the DVS Advanced Analysis Suite v3.6. All experiments were performed at 25° C.

[5] = Prolonged exposure to fixed relative humidity or rinsing with water, XRPD before and after; conditions: week long exposure; ambient temperature
[6] = heating rate 5° C./min, sample of the single form (Form H formed from Form E sample), ±3° C.
[7] = heating rate 5° C./min, A, B, H: melting/decomposition, E: loss of water and conversion to Form H, ±3° C.
[8] = mixture of Forms A and D, 0.3° C./min, Form D: conversion to Form A, Form A: melting/decomposition
[9] = sample including Forms A and C, 5° C./min, Form C: conversion to Form A, Form A: melting/decomposition

SMILES: CC(C)(O)c1ccc2c(c1)/C(=C/CCN1CC[C@](O)(c3ccc(Cl)cc3)C(C)(C)C1)c1cccnc1CO2 [Form A, citrate salt of (S)-4-(4-Chloro-phenyl)-1-{3-[7-(1-hydroxy-1-methyl-ethyl)-11H-10-oxa-1-aza-dibenzo[a,d]cyclohepten-5-ylidene]-propyl}-3,3-dimethyl-piperidin-4-ol]
- decomposition/melting observed with controlled temperature X-ray powder diffraction [1]: above 170 °C
- TGA weight loss from ambient temperature to about 100° C. ([2]; heating rate 5° C./min): about 0.23 % (w/w)
- TGA weight loss of the transition ([2]; heating rate 5° C./min, sample of the single form (Form H formed from Form E sample)): about 27.5 % (w/w)
- TGA weight loss transition, interpolated beginning temperature [2, 6]: about 164 °C
- TGA weight loss transition, temperature of maximum rate of weight loss [2, 6]: 183 °C
- TGA weight loss ([2]; sample including Forms A and C): 21.9 % (w/w)
- TGA weight loss, temperature of maximum rate of weight loss ([2]; sample including Forms A and C): 183 °C
- TGA weight loss, interpolated beginning temperature ([2]; sample including Forms A and C, Form C: conversion away from Form C, Form A: decomposition/melting): 168 °C
- DSC endothermic transition, Tmax ([3]; heating rate 1° C./min): 167 °C
- DSC endothermic transition, interpolated beginning temperature ([3]; heating rate 1° C./min): 164 °C
- DSC endothermic transition, Tmax [3, 7]: 176 °C
- DSC endothermic transition, interpolated beginning temperature [3, 7]: 169 °C
- DSC endothermic transition, Tmax [3, 8]: 166 °C
- DSC endothermic transition, interpolated beginning temperature [3, 8]: about 160 °C
- DSC endothermic transition, Tmax [3, 9]: 178 °C
- DSC endothermic transition, interpolated beginning temperature [3, 9]: about 173 °C
- change in moles of water per mole of anhydrous crystal over relative humidity 0% to 90% [4]: about 0.8 moles of water per mole of anhydrous crystal
- change in mass as the relative humidity is changed between 0% and 90% ([4]; dry crystal basis, known to within ±0.1%): about 1.9%
- XRPD before and after water sorption/desorption cycling ([4]; two consecutive cycles, 0% to 90% relative humidity): no structural change
- crystal form by XRPD after exposure to a relative humidity of 97.5% [5]: does not change form
